Data: PubChem BioAssay (NCI)
Values joined by “and” are separate entries in the source; they are usually repeats but may differ in a detail not shown here. Equal entries are not always repeated.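 Grown in 96-well plates, cells were treated for 48 hours with each compound at five concentrations. Insufficient inhibition: endpoint recorded as highest concentration tested. Here, GI50 denotes the concentration required for 50% inhibition of growth. TGI: concentration producing complete growth inhibition.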

Columns and labels:
Experiment in all cases: NCI-60 cell line screen, 48 h
SK-MEL-2 melanoma = system: SK-MEL-2 melanoma
RXF 393 renal = system: RXF 393 renal
U251 CNS = system: U251 CNS
UACC-62 melanoma = system: UACC-62 melanoma
CAKI-1 renal = system: CAKI-1 renal
NCI-H460 lung = system: NCI-H460 lung
RPMI-8226 leukemia = system: RPMI-8226 leukemia
K-562 leukemia = system: K-562 leukemia
SR leukemia = system: SR leukemia
OVCAR-3 ovarian = system: OVCAR-3 ovarian

Compound | TGI (SK-MEL-2 melanoma) | TGI (RXF 393 renal) | TGI (U251 CNS) | TGI (UACC-62 melanoma) | TGI (CAKI-1 renal) | TGI (NCI-H460 lung) | TGI (RPMI-8226 leukemia) | TGI (K-562 leukemia) | TGI (SR leukemia) | TGI (OVCAR-3 ovarian) | GI50 (SK-MEL-2 melanoma) | GI50 (RXF 393 renal) | GI50 (UACC-62 melanoma) | GI50 (CAKI-1 renal) | GI50 (NCI-H460 lung) | GI50 (K-562 leukemia) | GI50 (SR leukemia) | GI50 (OVCAR-3 ovarian) | GI50 (U251 CNS) | GI50 (RPMI-8226 leukemia)
Nc1ccc(N(S(=O)(=O)c2ccccc2)S(=O)(=O)c2ccccc2)c(Cl)c1 | > 100 µM | > 100 µM | > 100 µM | > 100 µM | > 100 µM | > 100 µM | > 100 µM | > 100 µM | > 100 µM | – | – | – | – | – | – | – | – | – | – | –
COc1cc(/C=C(\C#N)C(=O)c2ccccc2)ccc1OCc1ccccc1 | > 100 µM | – | – | > 100 µM | > 100 µM | – | > 100 µM | > 100 µM | > 100 µM | > 100 µM | – | – | – | – | – | – | – | – | – | –
CN1CCN(CCCN)CC1 | > 100 µM | > 100 µM | > 100 µM | > 100 µM | > 100 µM | – | > 100 µM | > 100 µM | > 100 µM | > 100 µM | – | – | – | – | – | – | – | – | – | –
CC(=O)c1cccc(N2COC(C)(C)c3nc4ccccc4n3C2)c1 | > 100 µM | > 100 µM | > 100 µM | > 100 µM | – | > 100 µM | > 100 µM | > 100 µM | > 100 µM | > 100 µM | – | – | – | – | – | – | – | – | – | –
Cc1c(NC(=O)C(C)(C)Br)c(=O)oc2c(C)c3occc(=O)c3cc12 | > 100 µM | > 100 µM | > 100 µM | > 100 µM | – | > 100 µM | > 100 µM | > 100 µM | > 100 µM | > 100 µM | – | – | – | – | – | – | – | – | – | –
COc1cc(/C=C/C(=O)CC(=O)/C=C/c2cc(OC)c(OC)c(OC)c2)cc(OC)c1OC | 78.8 µM | 8.84 µM | – | 13.4 µM | 16.5 µM | 18.4 µM | – | > 100 µM | 9.55 µM | 5.91 µM | 5.87 µM | 3.09 µM | 3.17 µM | 3.27 µM | 3.94 µM | 2.82 µM | 2.19 µM | 2.34 µM | – | –
Nc1c(C(=O)c2ccc(Cl)cc2)sc(Nc2ccccc2)c1-c1nc2ccccc2s1 | 21 µM | 33.1 µM | 36.3 µM | > 100 µM | – | > 100 µM | > 100 µM | > 100 µM | > 100 µM | – | 3.89 µM | 10.5 µM | 2.27 µM | – | 0.776 µM | 3.1 µM | 0.857 µM | – | 3.06 µM | 6.05 µM
CC(=O)Nc1ccc(C(=O)NN2C(=O)C(Cl)C2c2ccc(Cl)cc2)cc1 (configuration not stated) | > 100 µM | – | > 56.7 µM | > 100 µM | – | > 100 µM | > 100 µM | > 100 µM | > 100 µM | 52.3 µM | – | – | – | – | – | – | – | – | – | –
CCNC(=O)CCN(C(=O)O)S(=O)(=O)c1ccc(NC(=O)c2ccccc2)cc1 | > 100 µM | – | > 100 µM | > 100 µM | > 100 µM | > 100 µM | > 100 µM | > 100 µM | > 100 µM | > 100 µM | – | – | – | – | – | – | – | – | – | –
CC/C(C)=C1\CCC(CN2CCOCC2)C1=O (configuration not stated) | 32 µM | 22 µM | – | 32.7 µM | 5.99 µM | 32.4 µM | 15.9 µM | > 100 µM | 49.8 µM | 29.5 µM | – | – | – | – | – | – | – | – | – | –
CC1C[C@@]2(c3ccccc3)C(=O)CCC[C@H]2N1 (some centres not stated) | > 100 µM | > 100 µM | > 100 µM | > 100 µM | > 100 µM | > 100 µM | – | > 100 µM | > 100 µM | > 100 µM | – | – | – | – | – | – | – | – | – | –
O=C(/C=C/c1ccc([N+](=O)[O-])o1)N1CCN(Cc2ccccc2)CC1 | – | 24.5 µM | 28.1 µM | 20.6 µM | 21.7 µM | 29.8 µM | 32.3 µM | 26.2 µM | 38.7 µM | 31.7 µM | – | – | – | – | – | – | – | – | – | –
Cc1c[nH]c2c(O)cc3c(c12)[C@H](CCl)CN3C(=O)c1cc2cc(NC(=O)Nc3ccc4[nH]c(C(=O)N5C[C@@H](CCl)c6c5cc(O)c5[nH]cc(C)c65)cc4c3)ccc2[nH]1 | 89.3 µM and 8.9e-06 µg/mL and 0.00276 µg/mL | 70.8 nM and > 100 µM and 0.000888 µg/mL | – | – | – | – | – | – | – | 43.2 µM | – | – | – | 0.000268 µM | – | – | 0.000244 µM | – | – | –
C=CCC(N[C@H](CO)c1ccccc1)c1ccc2ccccc2n1 (some centres not stated) | > 100 µM | > 100 µM | > 100 µM | > 100 µM | > 100 µM | – | > 100 µM | > 100 µM | > 100 µM | > 100 µM | > 100 µM | > 100 µM | > 100 µM | > 100 µM | – | > 100 µM | > 100 µM | > 100 µM | > 100 µM | > 100 µM
O=S(=O)(N/N=C/c1ccc(/C=N/NS(=O)(=O)c2ccccc2)cc1)c1ccccc1 | > 100 µM | 77.4 µM | > 100 µM | 54.1 µM | – | > 100 µM | > 100 µM | 98.5 µM | > 100 µM | > 100 µM | – | – | – | – | – | – | – | – | – | –
CCCCOC(=O)NC(=O)c1cn(CCCOC(=O)CCCCCCCCC(=O)OCCCn2cc(C(=O)NC(=O)OCCCC)c(=O)[nH]c2=O)c(=O)[nH]c1=O | > 100 µM | > 100 µM | > 100 µM | > 100 µM | – | > 100 µM | > 100 µM | > 100 µM | > 100 µM | > 100 µM | – | – | – | – | – | – | – | – | – | –
COc1ccccc1N1C(=O)/C(=C/c2ccc(N(CCC#N)CCC#N)cc2C)N=C1c1cc([N+](=O)[O-])ccc1Cl | > 100 µM | – | > 100 µM | – | > 100 µM | > 100 µM | > 100 µM | > 100 µM | > 100 µM | > 100 µM | – | – | – | – | – | – | – | – | – | –
CC(=O)N[C@H]1C=C[C@@H]2/C=C(C)/C=C/[C@@H](C)[C@H]([C@H](C)[C@H](O)[C@@H](C)NC(C)=O)OC(=O)/C=C/C=C(C)\C=C\[C@]2(C)C1 | 17.9 µM | – | 4.65 µM and > 45 µM | 4.65 µM and 13.3 µM | – | > 45 µM | 4.65 µM and 13.1 µM | 4.65 µM and > 45 µM | 4.65 µM and 20.3 µM | 18 µM | 5.11 µM | 0.0103 µM and 0.0045 µM | 0.0228 µM and 0.0315 µM | – | 0.0045 µM | 0.0307 µM and 0.00538 µM | 0.0184 µM and 0.0045 µM | 0.0045 µM | 0.00747 µM and 0.0045 µM | 0.0428 µM and 0.0045 µM
Cn1c([N+](=O)[O-])cnc1/C=C1\Oc2ccccc2C1=O | 0.663 µM | – | 4.05 µM | 2.22 µM | 0.601 µM | 1.72 µM | 5.31 µM | 7.02 µM | 0.534 µM | 5.21 µM | 0.255 µM | – | 0.522 µM | 0.24 µM | 0.314 µM | 0.487 µM | 0.0392 µM | 0.527 µM | 1.19 µM | 1.27 µM
CCCCc1c2c(nc3c1CCC/C3=C\c1ccccc1)C(=O)CCC2 | 33.9 µM | 33 µM | 34 µM | 44 µM | – | > 100 µM | 45.4 µM | 85.2 µM | 36.6 µM | 33.4 µM | – | – | – | – | – | – | – | – | – | –
COc1ccc([N+]2=NC(c3ccc([N+](=O)[O-])cc3)=NN(c3ccccc3)C2)cc1 | – | > 100 µM | > 100 µM | – | – | > 100 µM | 80 µM and > 100 µM | 97.3 µM and > 100 µM | > 100 µM | > 100 µM | – | – | – | – | – | – | – | – | – | –
CCN(CC)CCC(=O)NC1c2ccc(Cl)cc2Oc2c(C)cccc21 (configuration not stated) | – | – | – | 34 µM | – | 31.7 µM | 70.3 µM | 40.7 µM | 39.1 µM | 28.8 µM | – | – | – | – | – | – | – | – | – | –
CCC1(CC)C(=O)OC(=O)C1(CC)CC | > 100 µM | – | > 100 µM | > 100 µM | > 100 µM | > 100 µM | > 100 µM | > 100 µM | > 100 µM | > 100 µM | – | – | – | – | – | – | – | – | – | –
O=c1c2c(nc3n1CCS3)[nH]c1ccccc12 | > 100 µM | > 100 µM | > 100 µM | > 100 µM | > 100 µM | > 100 µM | > 100 µM | > 100 µM | – | > 100 µM | > 100 µM | 58.6 µM | 62.4 µM | 76.8 µM | > 100 µM | > 100 µM | – | 95.4 µM | > 100 µM | > 100 µM
CCOC(=O)NC(=O)c1cn(CC(=O)NCC(=O)NCC(=O)NCCCN2CCN(CCCNC(=O)CNC(=O)CNC(=O)Cn3cc(C(=O)NC(=O)OCC)c(=O)[nH]c3=O)CC2)c(=O)[nH]c1=O | > 100 µM | – | > 100 µM | > 100 µM | > 100 µM | > 100 µM | – | > 100 µM | > 100 µM | > 100 µM | – | – | – | – | – | – | – | – | – | –
COC(=O)c1s/c(=N\C(=S)N(C)C)n(-c2ccccc2)c1C(=O)OC | > 100 µM | > 100 µM | > 100 µM | > 100 µM | > 100 µM | > 100 µM | > 100 µM | > 100 µM | – | > 100 µM | – | – | – | – | – | – | – | – | – | –
Cc1[nH]c2ccccc2c1C1Cc2ccccc2N1C(=O)/C=C\C(=O)O (configuration not stated) | 39.6 µM | 71.3 µM | 70.7 µM | 72.3 µM | > 100 µM | > 100 µM | – | > 100 µM | 85.7 µM | > 100 µM | – | – | – | – | – | – | – | – | – | –
COc1ccc(NC(=O)C(=O)C(C(=O)c2ccccc2)C2OC(=O)c3ccccc32)c([N+](=O)[O-])c1 (configuration not stated) | > 100 µM | > 100 µM | > 100 µM | > 100 µM | > 100 µM | > 100 µM | > 100 µM | > 100 µM | > 100 µM | – | – | – | – | – | – | – | – | – | – | –
